In paper PMC7604503, “Cyclic peptides can engage a single binding pocket through highly divergent modes” (Proceedings of the National Academy of Sciences of the …, 2020):
Where a SMILES comes first, the peptide text is derived from it. Bridges are numbered along the chain shown (N, C = ends).

Assays:
TRIM24(PHD,Bromo.) = biological target: T1, TRIM24(PHD,Bromo.) (Homo sapiens, UniProt O15164); test: BROMOscan competition binding assay (BromoMAX, Eurofins DiscoverX); settings: for Percent Control TRIM24(PHD,Bromo.): compound concentration 1000 nM, lower percentage control = stronger affinity
T1 construct: purchased Eurofins DiscoverX (BROMOscan, BromoMAX)
T1 sequence (O15164 824-1006 limits assumed): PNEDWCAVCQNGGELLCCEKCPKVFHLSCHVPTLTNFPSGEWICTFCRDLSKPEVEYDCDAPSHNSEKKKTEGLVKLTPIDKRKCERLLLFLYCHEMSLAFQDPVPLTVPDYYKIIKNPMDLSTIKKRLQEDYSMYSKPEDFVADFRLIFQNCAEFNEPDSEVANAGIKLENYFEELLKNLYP

BRD9 = biological target: T2, BRD9 (Homo sapiens, UniProt Q9H8M2); test: as above; settings: for Percent Control BRD9: compound concentration 1000 nM, lower percentage control = stronger affinity
T2 construct: purchased Eurofins DiscoverX (BROMOscan, BromoMAX)
T2 sequence (Q9H8M2 1-597): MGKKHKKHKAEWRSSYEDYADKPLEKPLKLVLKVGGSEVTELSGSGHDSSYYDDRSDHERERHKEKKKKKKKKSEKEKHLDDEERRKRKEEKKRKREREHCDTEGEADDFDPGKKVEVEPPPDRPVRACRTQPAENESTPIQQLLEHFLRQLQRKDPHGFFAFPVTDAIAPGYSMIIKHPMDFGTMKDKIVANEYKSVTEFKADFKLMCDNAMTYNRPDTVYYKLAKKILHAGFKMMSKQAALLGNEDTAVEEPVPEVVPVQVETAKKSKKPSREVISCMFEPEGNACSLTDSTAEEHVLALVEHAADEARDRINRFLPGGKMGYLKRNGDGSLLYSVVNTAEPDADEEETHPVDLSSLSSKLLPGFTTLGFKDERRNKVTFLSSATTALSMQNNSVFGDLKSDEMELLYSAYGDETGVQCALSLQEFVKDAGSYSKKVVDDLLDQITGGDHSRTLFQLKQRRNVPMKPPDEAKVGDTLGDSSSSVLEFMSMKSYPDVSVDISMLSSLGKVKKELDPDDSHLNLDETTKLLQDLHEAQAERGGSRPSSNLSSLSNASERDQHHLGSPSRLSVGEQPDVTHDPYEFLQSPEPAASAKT

CECR2 = biological target: T3, CECR2 (Homo sapiens, UniProt Q9BXF3); test: as above; settings: for Percent Control CECR2: compound concentration 1000 nM, lower percentage control = stronger affinity
T3 construct: purchased Eurofins DiscoverX (BROMOscan, BromoMAX)

PCAF = biological target: T4, PCAF (Homo sapiens, UniProt Q92831); test: as above; settings: for Percent Control PCAF: compound concentration 1000 nM, lower percentage control = stronger affinity
T4 construct: purchased Eurofins DiscoverX (BROMOscan, BromoMAX)

GCN5L2 = biological target: T5, GCN5L2 (Homo sapiens, UniProt Q92830); test: as above; settings: for Percent Control GCN5L2: compound concentration 1000 nM, lower percentage control = stronger affinity
T5 construct: purchased Eurofins DiscoverX (BROMOscan, BromoMAX)

BRD4-BD2 = biological target: T6, BRD4-BD2 (Homo sapiens, UniProt O60885); test: SPR binding of peptides to immobilised biotinylated BET bromodomain
T6 construct: BRD4 (BD1: 42-168; BD2: 348-464); Avi tag (biotinylated); made in house; host or cells: E. coli BL21(DE3)
Description: (§1) We next assessed the ability of each of the three lead peptides to bind BRD3-BD1. […] To assess selectivity for other BET BDs, we used SPR to determine the binding affinity of each peptide toward the remaining BDs from BRD2, BRD3, and BRD4 (Fig. 1B). […]
(§2) Peptides were synthesised as C-terminal amides using standard fluorenylmethyloxycarbonyl (Fmoc)-strategy solid-phase chemistry using a Syro I automated synthesiser (Biotage) and NovaPEG Rink Amide resin (Novabiochem). Couplings were performed with HBTU/HOBt (1:1) and 6 equivalents of each amino acid. Double couplings were performed for arginine residues.
(§3) Following the final amino acid coupling reaction, the Fmoc group was removed and resin incubated with N-(chloroacetoxy)succinimide (0.2 M in DMF, 1 h, RT). Resin was washed with DMF (5 times) and DCM (5 times) and dried in vacuo.
(§4) Linear peptides were cleaved from the resin by incubation (3 h, RT) with a trifluoroacetic acid (TFA) cleavage cocktail (TFA/2,2’-(ethylenedioxy)diethanethiol/triisopropyl silane/H2O (92.5:2.5:2.5:2.5)) before filtration, concentration in vacuo and precipitation with ice-cold diethyl ether. Crude peptides were washed with diethyl ether (5 times), dried and resuspended in DMSO. The pH was raised to >8 using triethylamine to allow cyclisation. Following incubation (1 h, RT), peptides were re-acidified with TFA for purification.
(§5) Crude peptides were purified by reverse-phase high-performance liquid chromatography using a Chromolith Prep column (Merck) on a Prominence LC-20AP system (Shimadzu) (Solvent A: 0.1% TFA in H2O, Solvent B: 0.1% TFA in acetonitrile) to >95% purity as determined by mass spectrometry (Fig. S17). Purified peptides were reconstituted in DMSO and concentrations determined from their absorbance at 280 nm in 5% DMSO using predicted extinction coefficients.
(§6) Surface plasmon resonance (SPR)
(§7) Measurements were conducted on a T200 or S200 (GE Healthcare) and data analysed using the Biacore Insight Evaluation Software. Experiments were performed at 4 °C in single cycle kinetics mode. Biotinylated BET bromodomains were immobilised on a CAP chip (GE Healthcare) with a […]
(§8) pH 7.5 was used as the running buffer. […]

BRD4-BD1 = biological target: T7, BRD4-BD1 (Homo sapiens, UniProt O60885); test: as above
T7 construct: BRD4 (BD1: 42-168; BD2: 348-464); Avi tag (biotinylated); made in house; host or cells: E. coli Rosetta2(DE3)
Description: as §1, §2, §3, §4, §5, §6, §7, §8

BRD3-BD2 = biological target: T8, BRD3-BD2 (Homo sapiens, UniProt Q15059); test: as above
T8 construct: Avi tag (biotinylated); made in house; host or cells: E. coli BL21(DE3)
Description: as §1, §2, §3, §4, §5, §6, §7, §8

BRD2-BD1 = biological target: T9, BRD2-BD1 (Homo sapiens, UniProt P25440); test: as above
T9 construct: human BRD2 (BD1: 65-194; BD2: 347-455); Avi tag (biotinylated); made in house; host or cells: E. coli BL21(DE3)
Description: as §1, §2, §3, §4, §5, §6, §7, §8

BRD4(1) = biological target: T10, BRD4(1) (Homo sapiens, UniProt O60885); test: BROMOscan competition binding assay (BromoMAX, Eurofins DiscoverX); settings: for Percent Control BRD4(1): compound concentration 1000 nM, lower percentage control = stronger affinity
T10 construct: BRD4(1); purchased Eurofins DiscoverX (BROMOscan, BromoMAX)

BRD3-BD1 = biological target: T11, BRD3-BD1 (Homo sapiens, UniProt Q15059); test: SPR binding of peptides to immobilised biotinylated BET bromodomain
T11 construct: BRD3 (BD1: 25-147); Avi tag (biotinylated); made in house; host or cells: E. coli BL21(DE3)
Text: as §1, §5, §6, §7, §8

BRD2-BD2 = biological target: T12, BRD2-BD2 (Homo sapiens, UniProt P25440); test: as above
T12 construct: human BRD2 (BD1: 65-194; BD2: 347-455); Avi tag (biotinylated); made in house; host or cells: E. coli BL21(DE3)
Text: as §1, §5, §6, §7, §8

TAF1(2) = biological target: T13, TAF1(2) (Homo sapiens, UniProt P21675); test: BROMOscan competition binding assay (BromoMAX, Eurofins DiscoverX); settings: for Percent Control TAF1(2): compound concentration 1000 nM, lower percentage control = stronger affinity
T13 construct: TAF1(2); purchased Eurofins DiscoverX (BROMOscan, BromoMAX)
T13 sequence (P21675 1521-1656 limits assumed): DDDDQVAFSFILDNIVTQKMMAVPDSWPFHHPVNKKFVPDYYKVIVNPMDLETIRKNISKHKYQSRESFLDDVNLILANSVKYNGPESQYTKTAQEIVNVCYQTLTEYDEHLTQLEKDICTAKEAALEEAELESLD

[1] = gray boxed value: no reproducible signals observed at the concentrations used
[2] = 4 C, geometric mean and SD of two to five measurements

Which results are given for `CC[C@H](C)[C@@H]1NC(=O)[C@H]([C@@H](C)O)NC(=O)[C@H](CCCCN)NC(=O)[C@H](Cc2c[nH]c3ccccc23)NC(=O)CSC[C@@H](C(N)=O)NC(=O)[C@H](CCC(N)=O)NC(=O)[C@H](CCCCNC(C)=O)NC(=O)[C@H]([C@@H](C)O)NC(=O)[C@H](CCCNC(=N)N)NC(=O)[C@H](Cc2c[nH]c3ccccc23)NC(=O)[C@H]([C@@H](C)O)NC(=O)[C@H](CCCCNC(C)=O)NC(=O)CNC(=O)[C@H](CCCCNC(C)=O)NC1=O` [3.1B] ({CH2CO}-WKTIK(Ac)GK(Ac)TWRTK(Ac)QC-NH2; thioether N-14)?
Percent Control TRIM24(PHD,Bromo.) (TRIM24(PHD,Bromo.)): 91%; Percent Control BRD9 (BRD9): 100%; Percent Control CECR2 (CECR2): 100%; Percent Control PCAF (PCAF): 94%; Percent Control GCN5L2 (GCN5L2): 100%; Kd (BRD4-BD2; [1]): > 10000 nM; Kd (BRD4-BD1; [2]): 0.55 ± 0.33 nM; Kd (BRD3-BD2; [1]): > 10000 nM; Kd (BRD2-BD1; [2]): 0.27 ± 0.16 nM; Percent Control BRD4(1) (BRD4(1)): 0.2%; Kd (BRD3-BD1; [2]): 0.49 ± 0.63 nM; Kd (BRD2-BD2; [1]): > 10000 nM; Percent Control TAF1(2) (TAF1(2)): 82%

How did the “Percent Control TRIM24(PHD,Bromo.)” value (TRIM24(PHD,Bromo.)) turn out when `CC[C@H](C)[C@@H]1NC(=O)[C@H](Cc2c[nH]c3ccccc23)NC(=O)[C@H](Cc2c[nH]c3ccccc23)NC(=O)CSC[C@@H](C(N)=O)NC(=O)CNC(=O)[C@H](CCCCNC(C)=O)NC(=O)[C@H](CCCCN)NC(=O)[C@H](C(C)C)NC(=O)[C@H](CCCCNC(C)=O)NC(=O)[C@@H]2CCCN2C(=O)[C@H]([C@@H](C)CC)NC1=O` [3.1C] ({CH2CO}-WWIIPK(Ac)VKK(Ac)GC-NH2; thioether N-11) was run?
The value was 94%.

And the “Percent Control BRD9” value (BRD9)?
The value was 95%.

What about the “Percent Control CECR2” value (CECR2) of the same compound?
The value was 99%.

And the “Percent Control PCAF” value (PCAF)?
Its value is 96%.

What about the “Percent Control GCN5L2” value (GCN5L2) of the same compound?
The value was 100%.

What about the Kd (BRD4-BD2; [2]) of the same compound?
The Kd was 340 ± 350 nM.

What about the Kd (BRD4-BD1; [2]) of the same compound?
Its Kd is 0.35 ± 0.1 nM.

And the Kd (BRD3-BD2; [2])?
The Kd was 13 ± 12 nM.

What about the Kd (BRD2-BD1; [2]) of the same compound?
The Kd was 0.19 ± 0.04 nM.

And the “Percent Control BRD4(1)” value (BRD4(1))?
The value was 0%.

What about the Kd (BRD3-BD1; [2]) of the same compound?
The Kd was 0.08 ± 0.049 nM.

And the Kd (BRD2-BD2; [2])?
Its Kd is 9.2 ± 25 nM.

What about the “Percent Control TAF1(2)” value (TAF1(2)) of the same compound?
Its value is 79%.

With `CC[C@H](C)[C@H](NC(=O)[C@H](CCCNC(=N)N)NC(=O)[C@H](CCCCNC(C)=O)NC(=O)[C@H](CCCNC(=N)N)NC(=O)[C@H](CC(C)C)NC(=O)[C@@H]1CSCC(=O)N[C@@H](Cc2c[nH]c3ccccc23)C(=O)N[C@@H](CCCCNC(C)=O)C(=O)NCC(=O)N[C@@H](Cc2ccc(O)cc2)C(=O)N[C@@H](CC(C)C)C(=O)N1)C(=O)N[C@@H](CCC(N)=O)C(=O)N[C@@H](CCCNC(=N)N)C(=O)N[C@H](C(=O)N[C@@H](Cc1ccc(O)cc1)C(=O)N[C@@H](CC(N)=O)C(N)=O)[C@@H](C)O` [4.2C] ({CH2CO}-WK(Ac)GYLCLRK(Ac)RIQRTYN-NH2; thioether N-6) as the compound, how does the percent of control binding at 1 µM (TRIM24(PHD,Bromo.)) read?
Its percent of control binding at 1 µM is 98%.

And the percent of control binding at 1 µM (BRD9)?
The percent of control binding at 1 µM was 89%.

What about the percent of control binding at 1 µM (CECR2) of the same compound?
The percent of control binding at 1 µM was 99%.

And the percent of control binding at 1 µM (PCAF)?
Its percent of control binding at 1 µM is 100%.

And the percent of control binding at 1 µM (GCN5L2)?
Its percent of control binding at 1 µM is 96%.

What about the Kd (BRD4-BD2; [2]) of the same compound?
The Kd was 36 ± 35 nM.

And the Kd (BRD4-BD1; [1])?
Its Kd is > 10000 nM.

And the Kd (BRD3-BD2; [2])?
Its Kd is 110 ± 116 nM.

And the Kd (BRD2-BD1; [1])?
Its Kd is > 10000 nM.

And the remaining binding at 1 µM (BRD4(1); read-out: Percent Control BRD4(1))?
The remaining binding at 1 µM was 96%.

And the Kd (BRD3-BD1; [1])?
Its Kd is > 10000 nM.

And the Kd (BRD2-BD2; [2])?
The Kd was 22 ± 26 nM.

And the percent of control binding at 1 µM (TAF1(2))?
The percent of control binding at 1 µM was 67%.
